# Experiments:
# [1] = target: SSTR-2 (Homo sapiens, UniProt P30874); conditions: antagonist at SSTR-2, cited from earlier work
# [2] = test system: non-diabetic rats; conditions: cited from earlier work
# [3] = test system: isolated islets; conditions: isolated islets and perifused isolated islets; reversed dose-dependently by added somatostatin; cited from earlier work
# [4] = test system: non-diabetic and STZ-diabetic rats; test: Insulin-induced hypoglycemic glucose clamp with SSTR antagonist infusion in non-diabetic and STZ-diabetic rats; type: in vivo, rat
# Method: FIG. 1 indicates levels of plasma glucose levels in four groups of rats during the 1-h SSTR antagonist/saline pretreatment and 3-h hypoglycemic clamp experiment. […] A similar glycemic profile is observed in FIG. 1B when another dose of insulin and SSTR antagonist (DC-41-33) were tested (5 U/kg and 3000 nmol/kg/h, respectively).
# Non-diabetic and STZ-diabetic rats were injected with insulin (10 U/kg and 5 U/kg). These doses yielded reproducible responses of plasma glucose (FIG. 1). In diabetic rats, plasma glucose is elevated approximately 3- to 4-fold before hypoglycemia is induced. A subcutaneous injection of insulin was given immediately after the sample was taken at time 0 in all groups of rats to induce hypoglycemia. Plasma glucose levels dropped to the same target hypoglycemia (2.75±0.25 mM) in both non-diabetic and diabetic rats. […] This technique of glucose clamping is a well-established method in diabetes research which allows precise comparison between different groups at a specific glycemic level.
# This technique is referred to as the “glucose clamp” and is achieved by intravenously infusing glucose whenever necessary.
# [5] = test system: isolated, perfused pancreas; conditions: perfused pancreas of non-diabetic rats; cited from earlier work
# SSTR-2, sequence (P30874 whole entry, species assumed): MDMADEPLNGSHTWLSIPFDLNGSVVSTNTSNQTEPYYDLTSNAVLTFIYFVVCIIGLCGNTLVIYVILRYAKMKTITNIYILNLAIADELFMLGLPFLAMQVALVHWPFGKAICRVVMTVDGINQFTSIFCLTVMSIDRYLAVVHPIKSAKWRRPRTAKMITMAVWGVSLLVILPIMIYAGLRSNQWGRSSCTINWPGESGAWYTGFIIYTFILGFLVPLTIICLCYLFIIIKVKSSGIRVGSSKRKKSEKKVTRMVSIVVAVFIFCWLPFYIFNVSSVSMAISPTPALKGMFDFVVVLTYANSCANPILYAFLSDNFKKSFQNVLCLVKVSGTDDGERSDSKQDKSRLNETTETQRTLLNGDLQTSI
substance,measurement,setting,value
H-Cpa-cyclo[Cys-Pal-DTrp-Lys-Ile-Cys]-Nal-NH2 [PRL-2915],"Affinity (nM), Units pKi",[1],7.9 pKi
"H-Cpa-cyclo[DCys-Tyr-DTrp-Lys-Thr-Cys]-Nal-NH2 (XCYWKTCX; Cpa, Nal, D-residues, cyclic disulfide, C-terminal amide; Synthetic - PRL-2970)","Affinity (nM), Units pKi",[1],7.6 pKi
H-Fpa-cyclo[DCys-Pal-DTrp-Lys-Tle-Cys]-Nal-NH2 [DC-41-33],"reversal of inhibition by GIP, GIP-(1-30)NH2 and GLP-1(7-36)NH2 of pentagastrin-stimulated gastric acid secretion",[2],able to reverse the inhibitory effect
same,glucagon secretion to an arginine stimulus,[3],dose-dependently increases glucagon secretion
same,plasma epinephrine levels during basal infusion of antagonist,"[4]; basal infusion before insulin, antagonist 1500 nmol/kg/h, FIG. 7",did not affect plasma epinephrine levels
same,growth hormone (GH) levels,"[4]; diabetic rats, regardless of hypoglycemia, insulin 5 U/kg, antagonist 3000 nmol/kg/h, FIG. 9",did not affect GH levels
same,"peak glucagon response to hypoglycemia, increase","[4]; diabetic rats, insulin 5 U/kg, antagonist 3000 nmol/kg/h, FIG. 3",~7 fold
same,corticosterone response to hypoglycemia,"[4]; diabetic rats, insulin 5 U/kg, antagonist 3000 nmol/kg/h, FIG. 5",fully normalized
same,plasma glucagon before insulin and throughout hypoglycemia,"[4]; diabetic rats, insulin 10 U/kg, antagonist 1500 nmol/kg/h, FIG. 2",glucagon was increased
same,increase in plasma epinephrine levels (AUC) in response to hypoglycemia,"[4]; diabetic rats, insulin 10 U/kg, antagonist 1500 nmol/kg/h, FIG. 7",4 fold
same,plasma norepinephrine during basal infusion and insulin-induced hypoglycemia,"[4]; insulin 10 U/kg, antagonist 1500 nmol/kg/h, FIG. 8",no effect
same,glucose infusion requirement during 3 h hypoglycemic clamp,"[4]; non-diabetic and diabetic rats versus untreated controls, insulin 5 U/kg, antagonist 3000 nmol/kg/h, FIG. 6",less glucose infusion was necessary
same,corticosterone response to hypoglycemia,"[4]; non-diabetic and diabetic rats, insulin 10 U/kg, antagonist 1500 nmol/kg/h, FIG. 4",augmented to the same extent
same,corticosterone response to hypoglycemia,"[4]; non-diabetic and diabetic rats, insulin 10 U/kg, antagonist 1500 nmol/kg/h, FIG. 4, listed as SSTR2 antagonist",increases in the corticosterone response
same,"increase in plasma glucagon induced by insulin, with versus without antagonist","[4]; non-diabetic rats, insulin 10 U/kg, antagonist 1500 nmol/kg/h, FIG. 2",3 fold
same,IC50,"[1]; Units column prints pIC50, read-out: Affinity (nM), Units pIC50 (converted)",27.4 nM
same,glucagon secretion,[5],enhances glucagon secretion
same,insulin secretion,[5],without affecting insulin secretion
"HFIRWF [AC-178,335, Ac-His-Phe-Ile-Arg-Trp-Phe-NH2]","Affinity (nM), Units pKi",[1],6.8 pKi

# From US8206722B2, “Somatostatin receptor antagonists and glucose control or hypoglycemia” (The Governing Council of the University of Toronto, priority 2007, dated 2012)
